In US20240252677A1, “ONE-COMPONENT DELIVERY SYSTEM FOR NUCLEIC ACIDS” (The Trustees of the University of Pennsylvania, priority 2021, published 2024):

How the values were obtained:
HEK293T cells = test: In vitro Luc-mRNA transfection, luciferase luminescence expression in HEK293T cells; assay type: cell-based, human; parameters: unit not given here; settings: n=3
Summary of the method: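 HEK293T cells were transfected with nucleoside-modified firefly luciferase mRNA at 125 ng/well delivered in the test particles. TransIT and MC3-based LNPs at equal mRNA dose served as comparators. After 24 h (18-20 h in some runs) at 37° C the cells were lysed, and luciferase luminescence was read on a luminometer, in triplicate.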

BALB/c mice = test: In vivo mRNA delivery in mice with DNPs, whole-body bioluminescence imaging (IVIS)
Experimental: The exposure time was 1 min.
Luminescence characterization for in vivo transfection experiments employed bioluminescence imaging with an IVIS Spectrum imaging system (PerkinElmer, Waltham, MA). Mice were anesthetized with 3% of isoflurane (Piramal Healthcare Limited) and intraperitoneally (i.p.) administered with D-luciferin (Regis Technologies) at a dose of 150 mg/kg of body weight. Ten minutes post administration of D-luciferin, mice were placed on the imaging platform while being maintained on isoflurane via a nose cone and imaged using an exposure time of 60 seconds. […] To quantify luminescent flux, an oval ROI was placed over each organ of interest and analyzed.
Tissue luminescence signal was measured on the IVIS imaging system using an exposure time of 60 seconds using medium binning (binning=8) to ensure that the signal obtained was within operative detection range. […] Bioluminescence imaging was performed as described above.
Luminescence Characterization for In Vivo Transfection Experiments: bioluminescence imaging was performed with an IVIS Spectrum imaging system (PerkinElmer, Waltham, MA).

lung = test: In vivo mRNA delivery, IVIS imaging of organs: lung; parameters: species or system mice; key to Organs with luminescence: lung: strong: Strong meant the luminescence intensity in that organ was relatively high, compared to other organs; weak: Weak meant the luminescence intensity in that organ was relatively low, compared to other organs; settings: for Organs with luminescence: lung: Table 17, mice, IVIS, 4-6 h after injection, intensity relative to other organs; for Organs with luminescence: lung (weak/strong): Table 14, imaging 6 h after injection
spleen = test: In vivo mRNA delivery, IVIS imaging of organs: spleen; parameters: species or system mice; key to Organs with luminescence: spleen: strong: Strong meant the luminescence intensity in that organ was relatively high, compared to other organs; weak: Weak meant the luminescence intensity in that organ was relatively low, compared to other organs; settings: for Organs with luminescence: spleen: Table 17, mice, IVIS, 4-6 h after injection, intensity relative to other organs; for Organs with luminescence: spleen (weak/strong): Table 14, imaging 6 h after injection
[1] = pKa measurements of individual IAJD molecules by titration; assay type: physicochemical; settings: ethanol saturated with NaCl, titrated with 0.1 M aqueous HCl, titration
Summary of the method: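 pKa derived by half-equivalence-point analysis of a pH-meter titration curve: 0.1 M HCl added in 7.5 μL increments to a 1.5 mg/mL solution of each molecule in ethanol saturated with NaCl.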

[2] = Table 16, HEK 293T cells, 125 ng/well
[3] = Table 20, nonsymmetric IAJDs and MC3-Luc-mRNA
[4] = HEK293T cells, Luc-mRNA 125 ng/well
[5] = Table 15, individual IAJD molecule

| pKa ([1]; individual IAJD molecules) | pKa [1, 5] | SMILES | Luminescence (HEK293T cells; [2]) | In vivo activity (total flux, p/s) (BALB/c mice; Table 19, nonsymmetric IAJDs) | Organs with luminescence: lung (lung) | Organs with luminescence: spleen (spleen) | In vivo activity (total flux, p/s) (BALB/c mice; [3]) | Luminescence (HEK293T cells; [4]) | Organs with luminescence: lung (weak/strong) (lung) | Organs with luminescence: spleen (weak/strong) (spleen) | Organs with luminescence (BALB/c mice; Table 13, mice, IVIS imaging 6 h after injection) |
| --- | --- | --- | --- | --- | --- | --- | --- | --- | --- | --- | --- |
| 6.32 |  | CCCCCCCCCCCCCCCOc1cc(COC(=O)CCCN2CCN(C)CC2)cc(OCC(CC)CCCC)c1 (stereo not shown) [IAJD 135, 3-((2-Ethylhexyl)oxy)-5-(pentadecyloxy)benzyl 4-(4-methylpiperazin-1-yl)butanoate] | 432 | 1.22 × 10^7 p/s | Lung (weak), | spleen (weak) |  |  |  |  |  |
| 6.69 |  | CCCCCCCCCCCCCCCOc1cc(COC(=O)CCCN2CCN(CCO)CC2)cc(OCCCCCCCCCC)c1 [IAJD 142, 3-(Decyloxy)-5-(pentadecyloxy)benzyl 4-(4-(2-hydroxyethyl)piperazin-1-yl)butanoate] | 463,750 | 2.51 × 10^7 p/s | Lung (weak), | spleen (strong) |  |  |  |  |  |
| 6.5 |  | CCCCCCCCCCCCCCCOc1cc(COC(=O)CCCN2CCN(CCO)CC2)cc(OCC(CC)CCCC)c1 (stereo not shown) [IAJD 136, 3-((2-Ethylhexyl)oxy)-5-(pentadecyloxy)benzyl 4-(4-(2-hydroxyethyl)piperazin-1-yl)butanoate] | 283,656 | 1.04 × 10^7 p/s | Lung (weak), | spleen (strong) |  |  |  |  |  |
| 6.62 |  | CCCCCCCCCCCCCCCOc1cc(COC(=O)CCCN2CCN(CCO)CC2)cc(OCCCCCCCC)c1 [IAJD 138, 3-(Octyloxy)-5-(pentadecyloxy)benzyl 4-(4-(2-hydroxyethyl)piperazin-1-yl)butanoate] | 102,620 | 1.49 × 10^7 p/s | Lung (weak), | spleen (strong) |  |  |  |  |  |

Second part, the compound before the results:

| SMILES | pKa ([1]; individual IAJD molecules) | pKa [1, 5] | Luminescence (HEK293T cells; [2]) | In vivo activity (total flux, p/s) (BALB/c mice; Table 19, nonsymmetric IAJDs) | Organs with luminescence: lung (lung) | Organs with luminescence: spleen (spleen) | In vivo activity (total flux, p/s) (BALB/c mice; [3]) | Luminescence (HEK293T cells; [4]) | Organs with luminescence: lung (weak/strong) (lung) | Organs with luminescence: spleen (weak/strong) (spleen) | Organs with luminescence (BALB/c mice; Table 13, mice, IVIS imaging 6 h after injection) |
| --- | --- | --- | --- | --- | --- | --- | --- | --- | --- | --- | --- |
| CCCCCCCCCCCOc1cc(COC(=O)CCCN2CCN(CCO)CC2)cc(OCC(CC)CCCC)c1 (stereo not shown) [IAJD 130, 3-((2-Ethylhexyl)oxy)-5-(undecyloxy)benzyl 4-(4-(2-hydroxyethyl)piperazin-1-yl)butanoate] | 6.62 |  | 76,345 | 1.18 × 10^8 p/s | Lung (weak), | spleen (strong) | 1.18 × 10^8 p/s |  |  |  |  |
| CCCCCCCCCCCCCCCCCCOc1cc(COC(=O)CCCN2CCN(C)CC2)cc(OCCCCCCCCCCC)c1 [IAJD 81, 3-(Octadecyloxy)-5-(undecyloxy)benzyl 4-(4-methylpiperazin-1-yl)butanoate] |  | 6.19 |  | 2.32 × 10^7 p/s | Lung (weak), | spleen (weak) | 2.32 × 10^7 p/s | 206,161 | Lung (weak), | spleen (weak) |  |
| CCCCC(CC)COc1ccc(COC(=O)CCCN2CCN(C)CC2)cc1OCC(CC)CCCC (stereo not shown) [IAJD 103, 3,4-Bis((2-ethylhexyl)oxy)benzyl 4-(4-methylpiperazin-1-yl)butanoate] |  | 6.23 |  |  |  |  |  | 19 | Lung (strong), | spleen (weak) | Lung, spleen |
| CCCCCCCCCCCCOc1cc(COC(=O)CCCN2CCN(CCO)CC2)cc(OCCCCCCCCCCC)c1 [IAJD 124, 3-(Dodecyloxy)-5-(undecyloxy)benzyl 4-(4-(2-hydroxyethyl)piperazin-1-yl)butanoate] | 6.65 |  | 145,115 | 3.77 × 10^7 p/s | Lung (weak), | spleen (strong) |  |  |  |  |  |
| CCCCCCCCCCCCCCCOc1cc(COC(=O)CCCN2CCN(CCO)CC2)cc(OCCCCCCCCCCC)c1 [IAJD 119, 3-(Pentadecyloxy)-5-(undecyloxy)benzyl 4-(4-(2-hydroxyethyl)piperazin-1-yl)butanoate] | 6.44 |  | 565,906 | 8.22 × 10^7 p/s | Lung (weak), | spleen (strong) |  |  |  |  |  |
